# Patent publication US6992079B2, “Substituted 11-phenyl-dibenzazepine compounds useful for the treatment or prevention of diseases characterized by abnormal cell proliferation” (President Fellows of Harvard College, priority 1997, dated 2006)
# Read-outs that look alike come from different tables or passages of the source.
# Assays:
# [1] = tested on: UACC-62; assay: In-Vitro Testing SRB panel: Melanoma; type: cell-based; conditions: UACC-62; log10 conc -8 Molar
# [2] = tested on: 786-0; assay: In-Vitro Testing SRB panel: Renal Cancer; type: cell-based; conditions: 786-0
# [3] = tested on: A498; assay: In-Vitro Testing SRB panel: Renal Cancer; type: cell-based; conditions: A498
# [4] = tested on: RXF 393; assay: In-Vitro Testing SRB panel: Renal Cancer; type: cell-based; conditions: RXF 393
# [5] = tested on: MC-F7; assay: In-Vitro Testing SRB panel: Breast Cancer; type: cell-based
# [6] = tested on: NCI/ADR-RES; assay: In-Vitro Testing SRB panel: Breast Cancer; type: cell-based
# [7] = tested on: MDA-MB-231/ATCC; assay: In-Vitro Testing SRB panel: Breast Cancer; type: cell-based; conditions: MDA-MB-231/ATCC
# [8] = tested on: HS 578T; assay: In-Vitro Testing SRB panel: Breast Cancer; type: cell-based
# [9] = tested on: ERVX
# [10] = Homo sapiens, read-out: LC50 (the source's name)
structure (smiles),measurement,setting,value
COc1cccc2c1C(c1ccccc1Cl)c1cc(Cl)ccc1N(C(=O)c1ccc([N+](=O)[O-])cc1)C2 (stereo not shown) [Compound 31],Percent Growth,[1],90%
same,TGI,[2],>1.00E−04 Molar
same,Percent Growth,[2]; log10 conc -4 Molar,14%
same,Percent Growth,[2]; log10 conc -5 Molar,26%
same,Percent Growth,[2]; log10 conc -6 Molar,54%
same,Percent Growth,[2]; log10 conc -7 Molar,91%
same,Percent Growth,[2]; log10 conc -8 Molar,95%
same,GI50,[2]; Homo sapiens,1.35 µM
same,CC50,[2]; [10],> 100 µM
same,TGI,[3],6.86E−06 Molar
same,Percent Growth,[3]; log10 conc -4 Molar,−32%
same,Percent Growth,[3]; log10 conc -5 Molar,−11%
same,Percent Growth,[3]; log10 conc -6 Molar,55%
same,Percent Growth,[3]; log10 conc -7 Molar,93%
same,Percent Growth,[3]; log10 conc -8 Molar,93%
same,GI50,[3]; Homo sapiens,1.19 µM
same,CC50,[3]; [10],> 100 µM
same,GI50,[4]; Homo sapiens,13.1 µM
same,CC50,[4]; [10],> 100 µM
same,TGI,[4],>1.00E−04 Molar
same,Percent Growth,[4]; log10 conc -4 Molar,39%
same,Percent Growth,[4]; log10 conc -5 Molar,52%
same,Percent Growth,[4]; log10 conc -6 Molar,81%
same,Percent Growth,[4]; log10 conc -7 Molar,96%
same,Percent Growth,[4]; log10 conc -8 Molar,96%
same,GI50,"[5]; Homo sapiens, MCF7",0.821 µM
same,CC50,"[5]; Homo sapiens, MCF7, MC-F7, read-out: LC50 (the source's name)",> 100 µM
same,TGI,[5]; MC-F7,>1.00E−04 Molar
same,Percent Growth,"[5]; MC-F7, log10 conc -4 Molar",5%
same,Percent Growth,"[5]; MC-F7, log10 conc -5 Molar",19%
same,Percent Growth,"[5]; MC-F7, log10 conc -6 Molar",46%
same,Percent Growth,"[5]; MC-F7, log10 conc -7 Molar",93%
same,Percent Growth,"[5]; MC-F7, log10 conc -8 Molar",97%
same,TGI,[6],>1.00E−04 Molar
same,GI50,[6]; Homo sapiens,3.88 µM
same,CC50,[6]; [10],> 100 µM
same,Percent Growth,[6]; log10 conc -4 Molar,12%
same,Percent Growth,[6]; log10 conc -5 Molar,27%
same,Percent Growth,[6]; log10 conc -6 Molar,84%
same,Percent Growth,[6]; log10 conc -7 Molar,101%
same,Percent Growth,[6]; log10 conc -8 Molar,95%
same,CC50,[7]; [10],> 100 µM
same,TGI,[7],>1.00E−04 Molar
same,Percent Growth,[7]; log10 conc -4 Molar,56%
same,Percent Growth,[7]; log10 conc -5 Molar,49%
same,Percent Growth,[7]; log10 conc -6 Molar,38%
same,Percent Growth,[7]; log10 conc -7 Molar,50%
same,Percent Growth,[7]; log10 conc -8 Molar,90%
same,TGI,[8]; HS 578T,>1.00E−04 Molar
same,Percent Growth,"[8]; HS 578T, log10 conc -4 Molar",17%
same,Percent Growth,"[8]; HS 578T, log10 conc -5 Molar",31%
same,Percent Growth,"[8]; HS 578T, log10 conc -6 Molar",49%
same,Percent Growth,"[8]; HS 578T, log10 conc -7 Molar",74%
same,Percent Growth,"[8]; HS 578T, log10 conc -8 Molar",90%
same,GI50,"[8]; Homo sapiens, Hs-578T",0.913 µM
same,CC50,"[8]; Homo sapiens, HS 578T, read-out: LC50 (the source's name)",> 100 µM
same,TGI,[9]; ERVX,>1.00E−04 Molar
same,Percent Growth,"[9]; ERVX, log10 conc -4 Molar",7%
same,Percent Growth,"[9]; ERVX, log10 conc -5 Molar",27%
same,Percent Growth,"[9]; ERVX, log10 conc -6 Molar",80%
same,Percent Growth,"[9]; ERVX, log10 conc -7 Molar",103%
same,Percent Growth,"[9]; ERVX, log10 conc -8 Molar",100%
same,GI50,[9]; Homo sapiens,3.65 µM
same,CC50,"[9]; Homo sapiens, read-out: LC50",> 100 µM
